From patent publication US20230085307A1, “PYRIDAZINONE COMPOUND AND HERBICIDE” (NISSAN CHEMICAL CORPORATION, priority 2019, published 2023) come the findings set out here.

Assay [1] concerns wild oat. Put plainly: Test Example 4: herbicidal effect by soil treatment (Table 19, symbol I). To be noted: amount of applied herbicide 320 g/ha. The format is in vivo, wild oat (Avena fatua). In outline:
(§1)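 Pre-emergence style soil spray: seeds under ~1.5 cm sterilized diluvial soil received a uniform coat of emulsion diluted to the predetermined herbicide amount. Greenhouse 25–30° C; readout at week three on previously defined criteria.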

For a further assay, the system named is redroot pigweed. Put plainly: Test Example 4: herbicidal effect by soil treatment (Table 19, symbol N). The format is in vivo, redroot pigweed (Amaranthus retroflexus). To be noted: amount of applied herbicide 320 g/ha. In short, it runs like this: as §1
Assay [2] relates to oval-leafed pondweed. Put plainly: Test Example 2: herbicidal activity, application during weed generation under submerged conditions (Table 17, symbol C). In kind it is in vivo, oval-leafed pondweed (Monochoria vaginalis). To be noted: AAH 320 g/ha; application during weed generation, submerged conditions. In short, it runs like this:
(§2)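 Wagner pot, alluvial soil, 4 cm flood; mixed sowing of all species; greenhouse 25° C.–30° C. Emulsifiable formulation, water-diluted to predetermined dose, applied to paddy water at 1–2 leaf stage. Effect rated at 3 wk using the earlier test's scoring criteria.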

Assay [3] concerns wild oat. In words: Test Example 5: herbicidal effect by foliage application, plastic box (Table 20, symbol I). In kind it is in vivo, wild oat (Avena fatua). Conditions: foliage application, AAH 320 g/ha, evaluated three weeks after application. In short, it runs like this: (§3)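 Plants were sown into sterilized diluvial soil under about 1.5 cm cover and kept in a greenhouse at 25° C. to 30° C. Fourteen days on, foliage received an even spray of the diluted emulsion. Herbicidal or crop effect was judged three weeks afterwards.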

The test system of assay [4] is green foxtail. In words: Test Example 5: herbicidal effect by foliage application, plastic box (Table 20, symbol G). The format is in vivo, green foxtail (Setaria viridis). Conditions: foliage application, AAH 320 g/ha, evaluated three weeks after application. In outline:
as §3

In another assay the test system is chickweed. Put plainly: Test Example 4: herbicidal effect by soil treatment (Table 19, symbol P). The format is in vivo, common chickweed (Stellaria media). Conditions: amount of applied herbicide 320 g/ha. In outline:
as §1

A further assay concerns rice flat sedge. Put plainly: Test Example 3: herbicidal effect by foliage application, Wagner pot (Table 18, symbol E). In kind it is in vivo, rice flat sedge (Cyperus iria). Conditions: amount of applied herbicide 320 g/ha. In outline: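 Plants were sown in alluvial soil held under 0.1–0.5 cm standing water and grown 14 days in a greenhouse at 25–30 °C. An emulsifiable formulation, water-diluted to the set dose, was then sprayed onto the foliage, and effects were scored three weeks later using previously defined criteria.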

The subject of the next assay is persian speedwell. Put plainly: Test Example 5: herbicidal effect by foliage application, plastic box (Table 20, symbol R). The format is in vivo, Persian speedwell (Veronica persica). To be noted: foliage application, AAH 320 g/ha, evaluated three weeks after application. In short, it runs like this:
as §3

The test system of assay [5] is Italian ryegrass. Put plainly: Test Example 5: herbicidal effect by foliage application, plastic box (Table 20, symbol K). To be noted: foliage application, AAH 320 g/ha, evaluated three weeks after application. In kind it is in vivo, Italian ryegrass (Lolium multiflorum). In short, it runs like this: as §3
A further assay concerns late watergrass. Put plainly: Test Example 2: herbicidal activity, application during weed generation under submerged conditions (Table 17, symbol A). The format is in vivo, late watergrass (Echinochloa oryzicola). Conditions: AAH 320 g/ha; application during weed generation, submerged conditions. In short, it runs like this:
as §2

Assay [6] concerns Italian ryegrass. In words: Test Example 4: herbicidal effect by soil treatment (Table 19, symbol K). Conditions: amount of applied herbicide 320 g/ha. In kind it is in vivo, Italian ryegrass (Lolium multiflorum). In outline: as §1
Assay [7] relates to oval-leafed pondweed. In words: Test Example 1: herbicidal activity, application before weed generation under submerged conditions (Table 16, symbol C). The format is in vivo, oval-leafed pondweed (Monochoria vaginalis). Conditions: 320 g/ha applied herbicide. In outline:
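Submerged Wagner pots (alluvial soil, 4 cm water) sown with weed seeds and planted with 2.5-leaf rice seedlings; emulsifiable concentrate diluted in water applied to water surface on sowing day. Held in greenhouse at 25-30 °C; injury scored 0-5 by herbicidal rate after three weeks.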

For the next assay, the system named is southern crabgrass. In words: Test Example 5: herbicidal effect by foliage application, plastic box (Table 20, symbol F). In kind it is in vivo, southern crabgrass (Digitaria ciliaris). To be noted: foliage application, AAH 320 g/ha, evaluated three weeks after application. In outline: as §3
In assay [8] the test system is velvetleaf. In words: Test Example 5: herbicidal effect by foliage application, plastic box (Table 20, symbol M). Conditions: foliage application, AAH 320 g/ha, evaluated three weeks after application. In kind it is in vivo, velvetleaf (Abutilon theophrasti). In outline:
as §3

Another assay relates to blackgrass. In words: Test Example 4: herbicidal effect by soil treatment (Table 19, symbol J). In kind it is in vivo, blackgrass (Alopecurus myosuroides). Conditions: amount of applied herbicide 320 g/ha. In short, it runs like this: as §1
In assay [9] the test system is velvetleaf. Put plainly: Test Example 4: herbicidal effect by soil treatment (Table 19, symbol M). Conditions: amount of applied herbicide 320 g/ha. The format is in vivo, velvetleaf (Abutilon theophrasti). In short, it runs like this: as §1
Assay [10] deals with green foxtail. Put plainly: Test Example 4: herbicidal effect by soil treatment (Table 19, symbol G). The format is in vivo, green foxtail (Setaria viridis). Conditions: amount of applied herbicide 320 g/ha. In outline:
as §1

For `CC(=O)c1ccc(-c2sc3ccc(F)cc3c2-c2c(O)c(C)nn(C)c2=O)cc1` [2-339], in the assay with wild oat [1], the “herbicidal effect on I: wild oat” value is on record as 0 (Herbicidal rate of 5% or less (almost no effect)). In the assay with redroot pigweed, the “herbicidal effect on N: redroot pigweed” value was 4 (Herbicidal rate of 70% or more and less than 90%). The “herbicidal effect rating, C: oval-leafed pondweed” value in the assay on oval-leafed pondweed [2] is 3 (Herbicidal rate of 40% or more and less than 70%). For the same compound, in the assay with wild oat [3], the “I: wild oat, herbicidal effect (criteria 0-5)” value was 3 (Herbicidal rate of 40% or more and less than 70%). The “G: green foxtail, herbicidal effect (criteria 0-5)” value in the assay with green foxtail [4] is 4 (Herbicidal rate of 70% or more and less than 90%). In addition, the “herbicidal effect on P: chickweed” value in the assay with chickweed is 3 (Herbicidal rate of 40% or more and less than 70%). The “herbicidal effect on E: rice flat sedge” value in the assay with rice flat sedge is 4 (Herbicidal rate of 70% or more and less than 90%). In addition, the “R: persian speedwell, herbicidal effect (criteria 0-5)” value in the assay with persian speedwell is listed as 5 (Herbicidal rate of 90% or more (almost completely withered)). Besides, the “K: Italian ryegrass, herbicidal effect (criteria 0-5)” value in the assay on Italian ryegrass [5] is given as 5 (Herbicidal rate of 90% or more (almost completely withered)). In the assay with late watergrass, the “herbicidal effect rating, A: late watergrass” value is 3 (Herbicidal rate of 40% or more and less than 70%). The “herbicidal effect on K: Italian ryegrass” value in the assay on Italian ryegrass [6] is 4 (Herbicidal rate of 70% or more and less than 90%). Further, the “Herbicidal effect on C: oval-leafed pondweed (grade 0-5)” value in the assay with oval-leafed pondweed [7] is listed as 5 (Herbicidal rate of 90% or more (almost completely withered)). Also, in the assay with southern crabgrass, the “F: southern crabgrass, herbicidal effect (criteria 0-5)” value was 3 (Herbicidal rate of 40% or more and less than 70%). The “M: velvetleaf, herbicidal effect (criteria 0-5)” value in the assay on velvetleaf [8] is recorded as 5 (Herbicidal rate of 90% or more (almost completely withered)). Besides, in the assay with blackgrass, the “herbicidal effect on J: blackgrass” value is 2 (Herbicidal rate of 20% or more and less than 40%). The “herbicidal effect on M: velvetleaf” value in the assay with velvetleaf [9] is listed as 5 (Herbicidal rate of 90% or more (almost completely withered)). Besides, the “herbicidal effect on G: green foxtail” value in the assay with green foxtail [10] is on record as 0 (Herbicidal rate of 5% or less (almost no effect)).
As to `Cc1nn(C)c(=O)c(-c2c(-c3ccc([N+](=O)[O-])cc3)sc3ccc(F)cc23)c1O` [2-341], in the assay with wild oat [1], the “herbicidal effect on I: wild oat” value is 3 (Herbicidal rate of 40% or more and less than 70%). In the assay on redroot pigweed, the “herbicidal effect on N: redroot pigweed” value is 5 (Herbicidal rate of 90% or more (almost completely withered)). Also, the “herbicidal effect rating, C: oval-leafed pondweed” value in the assay on oval-leafed pondweed [2] was 3 (Herbicidal rate of 40% or more and less than 70%). In addition, the “I: wild oat, herbicidal effect (criteria 0-5)” value in the assay on wild oat [3] is 4 (Herbicidal rate of 70% or more and less than 90%). Besides, in the assay with green foxtail [4], the “G: green foxtail, herbicidal effect (criteria 0-5)” value is given as 5 (Herbicidal rate of 90% or more (almost completely withered)). Besides, in the assay on chickweed, the “herbicidal effect on P: chickweed” value is 4 (Herbicidal rate of 70% or more and less than 90%). In addition, the “herbicidal effect on E: rice flat sedge” value in the assay with rice flat sedge was 3 (Herbicidal rate of 40% or more and less than 70%). Also, the “R: persian speedwell, herbicidal effect (criteria 0-5)” value in the assay with persian speedwell is 5 (Herbicidal rate of 90% or more (almost completely withered)). In the assay with Italian ryegrass [5], the “K: Italian ryegrass, herbicidal effect (criteria 0-5)” value is 5 (Herbicidal rate of 90% or more (almost completely withered)). In the assay on late watergrass, the “herbicidal effect rating, A: late watergrass” value was 3 (Herbicidal rate of 40% or more and less than 70%). In the assay with Italian ryegrass [6], the “herbicidal effect on K: Italian ryegrass” value is 5 (Herbicidal rate of 90% or more (almost completely withered)). Besides, in the assay with oval-leafed pondweed [7], the “Herbicidal effect on C: oval-leafed pondweed (grade 0-5)” value is 5 (Herbicidal rate of 90% or more (almost completely withered)). Moreover, the “F: southern crabgrass, herbicidal effect (criteria 0-5)” value in the assay on southern crabgrass was 5 (Herbicidal rate of 90% or more (almost completely withered)). In addition, in the assay with velvetleaf [8], the “M: velvetleaf, herbicidal effect (criteria 0-5)” value is reported as 5 (Herbicidal rate of 90% or more (almost completely withered)). Besides, in the assay with blackgrass, the “herbicidal effect on J: blackgrass” value is on record as 0 (Herbicidal rate of 5% or less (almost no effect)). Moreover, the “herbicidal effect on M: velvetleaf” value in the assay with velvetleaf [9] was 3 (Herbicidal rate of 40% or more and less than 70%). The “herbicidal effect on G: green foxtail” value in the assay with green foxtail [10] is 4 (Herbicidal rate of 70% or more and less than 90%).
